From patent publication US20130303485A1, “Compositions for Oral Administration of Zoledronic Acid or Related Compounds for Treating Disease” (priority 2012, published 2013)
Like-named read-outs stand apart in the source and are kept apart here.

What was measured:
[1] = physchem
Description: The aqueous solubility of zoledronic acid and disodium zoledronate tetrahydrate was determined. One gram of the test compound was measured in to a beaker. Demineralized water (pH 5.5) was then added in small increments to the test compound, and sonification was applied to the mixture. The procedure was continued until complete dissolution was achieved. Full dissolution was determined to have been reached when a clear solution was present with no visible material. The volume of water required to reach full dissolution was used to calculate a solubility value expressed in grams per 100 mL. The procedure was performed for each compound.

[2] = system: rat complete Freund's adjuvant (CFA) model of inflammatory pain; type: in vivo, Sprague-Dawley rats; conditions: for improvement in pain threshold from baseline: day three
Description: The effect of orally administered zoledronic acid on inflammatory pain was examined using the rat complete Freund's adjuvant (CFA) model. Inflammatory pain was induced by injection of 100% CFA in a 75 μL volume into the left hind paws of Sprague-Dawley rats on day 0, followed by assessments on days 1-3. Animals were orally administered vehicle (control), zoledronic acid 18 mg/m^2 (or 3 mg/kg), zoledronic acid 120 mg/m^2 (or 20 mg/kg), or zoledronic acid 900 mg/m^2 (or 150 mg/kg) daily on days 1-3. Drug was dissolved in distilled water and prepared fresh daily. Animals were fasted prior to dosing. Under current FDA guidelines for extrapolating starting dosages from animals to humans, dosages expressed in mg/m^2 are considered equivalent between mammalian species. Thus, for example, 18 mg/m^2 in a rat is considered equivalent to 18 mg/m^2 in a human being, while 3 mg/kg in a rat may not be equivalent to 3 mg/kg in a human being.
Values for inflammatory pain (mechanical hyperalgesia) in the vehicle and drug-treated animals were obtained on day 0 prior to CFA injection, and at baseline and post-treatment on days 1-3. Pain was assessed using a digital Randall-Selitto device (dRS; IITC Life Sciences, Woodland Hills, Calif.). Animals were placed in a restraint sling that suspended the animal, leaving the hind limbs available for testing. Paw compression threshold was measured by applying increasing pressure to the plantar surface of the hind paw with a dome-shaped tip placed between the 3rd and 4th metatarsus. Pressure was applied gradually over approximately 10 seconds. Measurements were taken from the first observed nocifensive behavior of vocalization, struggle or withdrawal. A cut-off value of 300 g was used to prevent injury to the animal.
Reversal of inflammatory pain was calculated according to the formula:
% reversal=(Post-treatment−Post-CFA baseline)/(Pre-CFA baseline−Post-CFA baseline)×100.
The experiment was carried out using 9-10 animals per group.

[3] = system: rat tibia fracture model of complex regional pain syndrome (CRPS); experiment: Rat tibia fracture model of complex regional pain syndrome (CRPS): hindpaw pain, weight bearing, edema, warmth; type: in vivo; conditions: oral 18 mg/m^2/day (3 mg/kg/day) for 28 days
Description: The effect of orally administered zoledronic acid was examined in the rat tibia fracture model of complex regional pain syndrome (CRPS). CRPS was induced in the rats by fracturing the right distal tibias of the animals and casting the fractured hindpaws for 4 weeks, as described in Guo T Z et al. (Pain. 2004; 108:95-107).
Animals were orally administered either vehicle (control) or zoledronic acid, in a dosage of 18 mg/m^2/day (3 mg/kg/day) for 28 days, starting on the day of fracture and casting. Drug was dissolved in distilled water and administered by gavage. Animals were fasted for 4 hours before and 2 hours after dosing. At the end of the 28-day period, casts were removed, and on the following day, the rats were tested for hindpaw pain, edema, and warmth.
Pain was assessed by measuring hyperalgesia, and weight bearing.
To measure hyperalgesia, an up-down von Frey testing paradigm was used. Rats were placed in a clear plastic cylinder (20 cm in diameter) with a wire mesh bottom and allowed to acclimate for 15 minutes. The paw was tested with one of a series of eight von Frey hairs ranging in stiffness from 0.41 g to 15.14 g. The von Frey hair was applied against the hindpaw plantar skin at approximately midsole, taking care to avoid the tori pads. The fiber was pushed until it slightly bowed and then it was jiggled in that position for 6 seconds. Stimuli were presented at an interval of several seconds. Hindpaw withdrawal from the fiber was considered a positive response. The initial fiber presentation was 2.1 g and the fibers were presented according to the up-down method of Dixon to generate six responses in the immediate vicinity of the 50% threshold. […].
An incapacitance device (IITC Inc. Life Science, Woodland, Calif., USA) was used to measure hindpaw weight bearing, a postural effect of pain. The rats were manually held in a vertical position over the apparatus with the hindpaws resting on separate metal scale plates and the entire weight of the rat was supported on the hindpaws. The duration of each measurement was 6 seconds and 10 consecutive measurements were taken at 60-second intervals. Eight readings (excluding the highest and lowest ones) were averaged to calculate the bilateral hindpaw weight-bearing values. Weight bearing data were analyzed as the ratio between right (fracture) and left hindpaw weight bearing values ((2R/(R+L))×100%).
A laser sensor technique was used to determine the dorsal-ventral thickness of the hindpaw. Before baseline testing the bilateral hindpaws were tattooed with a 2 to 3 mm spot on the dorsal skin over the midpoint of the third metatarsal. […]
The temperature of the hindpaw was measured using a fine wire thermocouple (Omega, Stanford, Conn., USA) applied to the paw skin. […]

[4] = system: rat complete Freund's adjuvant (CFA) model of arthritis pain; experiment: Rat complete Freund's adjuvant (CFA) model of arthritis pain, paw compression threshold (Randall-Selitto); type: in vivo; conditions: evaluated day 14 post CFA
Description: The effect of orally administered zoledronic acid on arthritis pain was examined in the rat complete Freund's adjuvant (CFA) model of arthritis pain. In this model, injection of 100% complete Freund's adjuvant (CFA) in a […] volume into the left hind paws is followed by a 10-14 day period to allow for the development of arthritis pain. Animals were orally administered vehicle (control), zoledronic acid 54 mg/m^2 (or 9 mg/kg), or zoledronic acid 360 mg/m^2 (or 60 mg/kg), divided in three equal daily doses on the first three days post CFA injection. Drug was dissolved in distilled water and prepared fresh daily. Animals were fasted prior to dosing.
Arthritis pain (mechanical hyperalgesia) in the vehicle and drug-treated animals was evaluated on day 14 post CFA injection using a digital Randall-Selitto device (dRS; IITC Life Sciences, Woodland Hills, Calif.). Animals were placed in a restraint sling that suspended the animal, leaving the hind limbs available for testing. Paw compression threshold was measured by applying increasing pressure to the plantar surface of the hind paw with a dome-shaped tip placed between the 3rd and 4th metatarsus. Pressure was applied gradually over approximately 10 seconds. […]
Reversal of arthritis pain in the ipsilateral (CFA-injected) paw was calculated according to the formula: […]

[5] = oral 18 mg/m^2 (3 mg/kg) daily on days 1-3
[6] = oral 900 mg/m^2 (150 mg/kg) daily on days 1-3

SMILES	solubility ([1]; pH 5.5, water, thermodynamic from solid)	reversal of inflammatory pain [2, 5]	improvement in pain threshold from baseline [2, 5]	paw compression thresholds versus vehicle ([2]; oral 18 mg/m^2, entire measurement period after 30 minutes from start of treatment)	paw compression thresholds versus vehicle ([2]; oral 120 mg/m^2 (20 mg/kg) daily, all time points during the assessment period)	reversal of inflammatory pain [2, 6]	improvement in pain threshold from baseline [2, 6]	toxicity ([2]; oral 900 mg/m^2 (150 mg/kg) daily on days 1-3, two days after cessation of dosing)	paw compression thresholds versus vehicle ([2]; two higher doses (120 and 900 mg/m^2), first two days of dosing)	reduction of hindpaw warmth versus vehicle [3]	reversal of fracture induced pain (von Frey threshold) as compared to vehicle [3]	hindlimb weight bearing, % of normal ([3]; fracture hindlimb)	reduction of hindpaw edema versus vehicle ([3]; hindpaw thickness)	reversal of arthritis pain ([4]; oral 54 mg/m^2 (9 mg/kg) in three equal daily doses)	reversal of arthritis pain ([4]; oral 360 mg/m^2 (60 mg/kg) in three equal daily doses)	aqueous solubility ([1]; pH 5.5)
O=P(O)(O)C(O)(Cn1ccnc1)P(=O)(O)O [zoledronic acid]	≥ 2500 µg/mL	29%	49%	higher than for vehicle	approximately equal or inferior to vehicle	48%	83%	significant toxicity necessitating euthanization of all the animals in this group	lower than vehicle	5%	77%	86 % of normal	60%	33%	54%	–
O.O.O.O.O=P([O-])(O)C(O)(Cn1ccnc1)P(=O)([O-])O.[Na+].[Na+] [disodium zoledronate tetrahydrate]	–	–	–	–	–	–	–	–	–	–	–	–	–	–	–	≥ 12.5 g/100 mL
